Laboratory results taken from patent publication US10294202B2, “Pyrrolidinones as herbicides” (FMC Corporation, priority 2013, dated 2019).

How the values were obtained:
corn = test: Test A pre-/postemergence herbicide test; type: in vivo, Zea mays; conditions: Postemergence
Summary of the method: (§1)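 Visual injury ratings, 0 = no effect, 100 = complete control, taken ~10 days after treatment against untreated greenhouse controls. Preemergence: directed soil spray onto seeded loam/sand pots. Postemergence: spray onto plants at one- to two-leaf stage, 2–10 cm tall.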

rice = test: Test B flooded paddy test; type: in vivo, Oryza sativa; conditions: 500 g ai/ha, Flood; scale of 0 to 100 where 0 is no effect and 100 is complete control
Summary of the method: (§2)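 2-leaf plants; flood 3 cm over soil; compound into paddy water; depth held. Greenhouse 13–15 d. Visual rating vs controls, 0 (no effect) to 100 (complete control); dash = not tested.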

giant foxtail = test: Test A pre-/postemergence herbicide test; type: in vivo, Setaria faberii
Summary of the method: as §1

sedge, umbrella = test: Test B flooded paddy test; type: in vivo, Cyperus difformis; conditions: 500 g ai/ha, Flood; scale of 0 to 100 where 0 is no effect and 100 is complete control
Summary of the method: as §2

barnyardgrass [1] = test: Test B flooded paddy test; type: in vivo, Echinochloa crus-galli; conditions: 500 g ai/ha, Flood; scale of 0 to 100 where 0 is no effect and 100 is complete control
Summary of the method: as §2

blackgrass = test: Test A postemergence herbicide test; type: in vivo, Alopecurus myosuroides
Summary of the method: (§3)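 Injury was rated visually about 10 days after treatment on a 0 (no effect) to 100 (complete control) scale, compared with untreated plants. Test chemicals were sprayed postemergence onto greenhouse plants 2–10 cm high at one to two leaves, grown in a loam–sand blend.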

ducksalad = test: Test B flooded paddy test; type: in vivo, Heteranthera limosa; conditions: 500 g ai/ha, Flood; scale of 0 to 100 where 0 is no effect and 100 is complete control
Summary of the method: as §2

wheat = test: Test A pre-/postemergence herbicide test; type: in vivo, Triticum aestivum; conditions: Postemergence
Summary of the method: as §1

kochia = test: Test A pre-/postemergence herbicide test; type: in vivo, Kochia scoparia
Summary of the method: as §1

ryegrass, Italian = test: Test A pre-/postemergence herbicide test; type: in vivo, Lolium multiflorum
Summary of the method: as §1

galium = test: Test A postemergence herbicide test; type: in vivo, Galium aparine
Summary of the method: as §3

barnyardgrass [2] = test: Test A pre-/postemergence herbicide test; type: in vivo, Echinochloa crus-galli
Summary of the method: as §1

ragweed = test: Test A pre-/postemergence herbicide test; type: in vivo, Ambrosia elatior
Summary of the method: as §1

pigweed = test: Test A pre-/postemergence herbicide test; type: in vivo, Amaranthus retroflexus
Summary of the method: as §1

[3] = 125 g ai/ha, visual rating on 0 to 100 scale (0 no effect, 100 complete control), approx. 10 days
[4] = 500 g ai/ha, 0 to 100 scale (0 no effect, 100 complete control)
[5] = Postemergence, 125 g ai/ha, visual rating on 0 to 100 scale (0 no effect, 100 complete control), approx. 10 days
[6] = Postemergence, 500 g ai/ha, 0 to 100 scale (0 no effect, 100 complete control)
[7] = Preemergence, 125 g ai/ha, 0 to 100 scale where 0 is no effect and 100 is complete control
[8] = Preemergence, 500 g ai/ha, visual rating on 0 to 100 scale (0 no effect, 100 complete control)

Compound | Plant response rating, Corn (corn; [3]) | Plant response rating, Corn (corn; [4]) | Plant response rating, Rice (rice) | Plant response rating, Foxtail, Giant (giant foxtail; [5]) | Plant response rating, Foxtail, Giant (giant foxtail; [6]) | Plant response rating, Foxtail, Giant (giant foxtail; [7]) | Foxtail, Giant plant response rating (giant foxtail; [8]) | Plant response rating, Sedge, Umbrella (sedge, umbrella) | Plant response rating, Barnyardgrass (barnyardgrass [1]) | Plant response rating, Blackgrass (blackgrass; [3]) | Plant response rating, Blackgrass (blackgrass; [4]) | Plant response rating, Ducksalad (ducksalad) | Plant response rating, Wheat (wheat; [3]) | Plant response rating, Kochia (kochia; [5]) | Plant response rating, Kochia (kochia; [7]) | Kochia plant response rating (kochia; [8]) | Plant response rating, Ryegrass, Italian (ryegrass, Italian; [5]) | Plant response rating, Ryegrass, Italian (ryegrass, Italian; [7]) | Ryegrass, Italian plant response rating (ryegrass, Italian; [8]) | Plant response rating, Galium (galium; [3]) | also measured
O=C1NCC(c2cccc(Oc3ccccc3)c2)C1C(=O)Nc1ccc(F)cc1F (stereo not drawn) [Compound 331] | 0 | 0 | 0 | 20 | 80 | 50 | 90 | 0 | 40 | 0 | 30 | 65 | 0 | 0 | 0 | 0 | 0 | 0 | 20 | 0 | Plant response rating, Wheat (wheat; [4]): 0; Plant response rating, Kochia (kochia; [6]): 20; Plant response rating, Ryegrass, Italian (ryegrass, Italian; [6]): 0; Plant response rating, Galium (galium; [4]): 30; Plant response rating, Barnyardgrass (barnyardgrass [2]; [5]): 20; Plant response rating, Barnyardgrass (barnyardgrass [2]; [6]): 70; Plant response rating, Barnyardgrass (barnyardgrass [2]; [7]): 20; Barnyardgrass plant response rating (barnyardgrass [2]; [8]): 80; Plant response rating, Ragweed (ragweed; [5]): 0; Plant response rating, Ragweed (ragweed; [6]): 0; Plant response rating, Ragweed (ragweed; [7]): 0; Ragweed plant response rating (ragweed; [8]): 20; Plant response rating, Pigweed (pigweed; [5]): 0; Plant response rating, Pigweed (pigweed; [6]): 0; Plant response rating, Pigweed (pigweed; [7]): 0; Pigweed plant response rating (pigweed; [8]): 20
CCN1CC(c2ccc(C(F)(F)F)cc2)C(C(=O)Nc2ccccc2F)C1=O (stereo not drawn) [Compound 335] | 0 | 0 | 0 | 70 | 90 | 70 | 90 | 0 | 0 | 0 | 20 | 65 | 0 | 0 | 40 | 60 | 0 | 0 | 0 | 0 | Plant response rating, Wheat (wheat; [4]): 20; Plant response rating, Kochia (kochia; [6]): 0; Plant response rating, Ryegrass, Italian (ryegrass, Italian; [6]): 0; Plant response rating, Galium (galium; [4]): 0; Plant response rating, Barnyardgrass (barnyardgrass [2]; [5]): 20; Plant response rating, Barnyardgrass (barnyardgrass [2]; [6]): 60; Plant response rating, Barnyardgrass (barnyardgrass [2]; [7]): 0; Barnyardgrass plant response rating (barnyardgrass [2]; [8]): 50; Plant response rating, Ragweed (ragweed; [5]): 0; Plant response rating, Ragweed (ragweed; [6]): 0; Plant response rating, Ragweed (ragweed; [7]): 0; Ragweed plant response rating (ragweed; [8]): 0; Plant response rating, Pigweed (pigweed; [5]): 0; Plant response rating, Pigweed (pigweed; [6]): 0; Plant response rating, Pigweed (pigweed; [7]): 0; Pigweed plant response rating (pigweed; [8]): 30
CCN1CC(c2ccc(C(F)(F)F)cc2)C(C(=O)Nc2cccc(F)c2F)C1=O (stereo not drawn) [Compound 336] | 0 | 0 | 0 | 70 | 70 | 80 | 90 | 0 | 50 | 0 | 0 | 60 | 0 | 0 | 0 | 60 | 0 | 0 | 20 | 0 | Plant response rating, Wheat (wheat; [4]): 0; Plant response rating, Kochia (kochia; [6]): 0; Plant response rating, Ryegrass, Italian (ryegrass, Italian; [6]): 0; Plant response rating, Galium (galium; [4]): 0; Plant response rating, Barnyardgrass (barnyardgrass [2]; [5]): 30; Plant response rating, Barnyardgrass (barnyardgrass [2]; [6]): 60; Plant response rating, Barnyardgrass (barnyardgrass [2]; [7]): 50; Barnyardgrass plant response rating (barnyardgrass [2]; [8]): 60; Plant response rating, Ragweed (ragweed; [5]): 0; Plant response rating, Ragweed (ragweed; [6]): 0; Plant response rating, Ragweed (ragweed; [7]): 0; Ragweed plant response rating (ragweed; [8]): 0; Plant response rating, Pigweed (pigweed; [5]): 0; Plant response rating, Pigweed (pigweed; [6]): 0; Plant response rating, Pigweed (pigweed; [7]): 0; Pigweed plant response rating (pigweed; [8]): 20
O=C1NCC(c2cccc(-n3cccn3)c2)C1C(=O)Nc1ccccc1C(F)(F)F (stereo not drawn) [Compound 338] | 0 | 0 | 0 | 20 | 60 | 30 | 80 | 0 | 0 | 0 | 0 | 0 | 0 | 0 | 0 | 20 | 0 | 0 | 0 | 0 | Plant response rating, Barnyardgrass (barnyardgrass [2]; [5]): 0; Plant response rating, Barnyardgrass (barnyardgrass [2]; [6]): 30; Plant response rating, Barnyardgrass (barnyardgrass [2]; [7]): 0; Barnyardgrass plant response rating (barnyardgrass [2]; [8]): 20; Plant response rating, Ragweed (ragweed; [5]): 0; Plant response rating, Ragweed (ragweed; [7]): 0; Ragweed plant response rating (ragweed; [8]): 0; Plant response rating, Pigweed (pigweed; [5]): 0; Plant response rating, Pigweed (pigweed; [7]): 0; Pigweed plant response rating (pigweed; [8]): 0
O=C1NCC(c2ccc(Br)c(Br)c2)C1C(=O)Nc1ccccc1F (stereo not drawn) [Compound 339] | 0 | 0 | 0 | 60 | 60 | 70 | 80 | 0 | 40 | 0 | 0 | 65 | 0 | 0 | 0 | 0 | 0 | 0 | 20 | 0 | Plant response rating, Barnyardgrass (barnyardgrass [2]; [5]): 40; Plant response rating, Barnyardgrass (barnyardgrass [2]; [6]): 60; Plant response rating, Barnyardgrass (barnyardgrass [2]; [7]): 60; Barnyardgrass plant response rating (barnyardgrass [2]; [8]): 80; Plant response rating, Ragweed (ragweed; [5]): 0; Plant response rating, Ragweed (ragweed; [7]): 0; Ragweed plant response rating (ragweed; [8]): 0; Plant response rating, Pigweed (pigweed; [5]): 0; Plant response rating, Pigweed (pigweed; [7]): 0; Pigweed plant response rating (pigweed; [8]): 0
O=C1NCC(c2ccc(Br)c(Br)c2)C1C(=O)Nc1ccc(F)cc1F (stereo not drawn) [Compound 340] | 0 | 0 | 0 | 30 | 90 | 80 | 90 | 0 | 0 | 0 | 20 | 50 | 0 | 0 | 0 | 0 | 0 | 0 | 20 | 0 | Plant response rating, Barnyardgrass (barnyardgrass [2]; [5]): 30; Plant response rating, Barnyardgrass (barnyardgrass [2]; [6]): 50; Plant response rating, Barnyardgrass (barnyardgrass [2]; [7]): 60; Barnyardgrass plant response rating (barnyardgrass [2]; [8]): 80; Plant response rating, Ragweed (ragweed; [5]): 0; Plant response rating, Ragweed (ragweed; [7]): 0; Ragweed plant response rating (ragweed; [8]): 0; Plant response rating, Pigweed (pigweed; [5]): 0; Plant response rating, Pigweed (pigweed; [7]): 0; Pigweed plant response rating (pigweed; [8]): 0
